# Laboratory results published in paper PMC6386767, “Characterization of recombinant fructose-1,6-bisphosphatase gene mutations: evidence of inhibition/activation of FBPase protein by gene mutation” (Bioscience Reports, 2019).
# Substitutions are numbered along the chain they refer to.
# Legend:
# Format in all cases: binding
# pig kidney FBPase L56A = biological target: T1, pig kidney FBPase L56A (Sus scrofa, UniProt P00636, L57A); assay: Differential scanning fluorimetry, L56A mutant; settings: enzyme L56A
# T1 construct: His6 (C); made in house; host or cells: Escherichia coli BL21 (DE3)
# T1 sequence (P00636 1-338 L57A): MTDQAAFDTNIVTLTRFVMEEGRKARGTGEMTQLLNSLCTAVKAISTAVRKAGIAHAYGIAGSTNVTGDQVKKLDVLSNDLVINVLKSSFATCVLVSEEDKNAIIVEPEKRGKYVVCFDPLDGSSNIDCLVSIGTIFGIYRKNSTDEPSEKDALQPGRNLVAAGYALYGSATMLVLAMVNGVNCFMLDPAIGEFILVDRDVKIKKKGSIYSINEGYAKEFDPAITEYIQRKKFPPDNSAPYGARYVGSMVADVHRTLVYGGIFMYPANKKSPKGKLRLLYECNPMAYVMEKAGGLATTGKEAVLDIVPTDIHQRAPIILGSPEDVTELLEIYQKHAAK
# Procedure: (§1) Differential scanning fluorimetry (DSF) assays were designed and implemented to run on WT and each mutant for the purpose of determining relative stabilities by melting point, and to detect structural changes in the enzymes upon ligand binding. Thermal shift assays were performed with a Light Cycler 96 System Real-Time PCR machine (Roche) using Sypro-Orange dye (Invitrogen) and thermal ramping (0.25°C per min between 20 and 85°C). […] Data were processed using the Boltzmann equation to generate sigmoidal denaturation curves, and average Tm/ΔTm values were calculated as previously described using GraphPad Prism software package.
# pig kidney FBPase Y164A = biological target: T2, pig kidney FBPase Y164A (Sus scrofa, UniProt P00636, Y165A); assay: Differential scanning fluorimetry, Y164A mutant; settings: enzyme Y164A
# T2 construct: His6 (C); made in house; host or cells: Escherichia coli BL21 (DE3)
# T2 sequence (P00636 1-338 Y165A): T1 sequence (P00636 1-338 L57A) with A57L, Y165A
# Procedure: as §1
# pig kidney FBPase M177A = biological target: T3, pig kidney FBPase M177A (Sus scrofa, UniProt P00636, M178A); assay: Differential scanning fluorimetry, M177A mutant; settings: enzyme M177A
# T3 construct: His6 (C); made in house; host or cells: Escherichia coli BL21 (DE3)
# T3 sequence (P00636 1-338 M178A): T1 sequence (P00636 1-338 L57A) with A57L, M178A
# Procedure: as §1
# pig kidney FBPase K112A = biological target: T4, pig kidney FBPase K112A (Sus scrofa, UniProt P00636, K113A); assay: Differential scanning fluorimetry, K112A mutant; settings: enzyme K112A
# T4 construct: His6 (C); made in house; host or cells: Escherichia coli BL21 (DE3)
# T4 sequence (P00636 1-338 K113A): T1 sequence (P00636 1-338 L57A) with A57L, K113A
# Procedure: as §1
Compound,melting point of enzyme with AMP (100 µM) (pig kidney FBPase L56A; AMP 100 µM),melting point of enzyme with AMP (100 µM) (pig kidney FBPase Y164A; AMP 100 µM),melting point of enzyme with AMP (100 µM) (pig kidney FBPase M177A; AMP 100 µM),"reduction in melting temperature, presence of AMP vs absence of ligand (pig kidney FBPase K112A)",melting point of enzyme with AMP (100 µM) (pig kidney FBPase K112A; AMP 100 µM),melting point of enzyme with Mg^2+ ([…]) (pig kidney FBPase L56A; Mg^2+ […]),melting point of enzyme with Mg^2+ ([…]) (pig kidney FBPase Y164A; Mg^2+ […]),melting point of enzyme with Mg^2+ ([…]) (pig kidney FBPase M177A; Mg^2+ […]),melting point of enzyme with Mg^2+ ([…]) (pig kidney FBPase K112A; Mg^2+ […])
Nc1ncnc2c1ncn2[C@@H]1O[C@H](COP(=O)(O)O)[C@@H](O)[C@H]1O [AMP],57.0 (± 2.75) °C,55.0 (± 2.25) °C,54.1 (± 1.25) °C,5–9 °,42.0 (± 2.50) °C,,,,
"[Mg+2] [Mg^2+, magnesium]",,,,,,56.0 (± 2.50) °C,55.2 (± 1.75) °C,55.8 (± 1.75) °C,51.0 (± 2.50) °C
